From ChEMBL document CHEMBL1201862, “PubChem BioAssay data set” (2004)
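A five-concentration, 48-hour dose response in 96-well plates underlies each endpoint, interpolated linearly between surrounding concentrations. GI50: concentration for 50% inhibition of growth.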 The source made the active and inactive calls. Rule as the data show it: active = GI50 up to about 1.1 µM and inactive = higher.

Columns and labels:
Test in all cases: NCI tumour cell line growth inhibition, 48 h
786-0 = system: 786-0
A549 = system: A549
CCRF-CEM = system: CCRF-CEM
HCC 2998 = system: HCC 2998
HCT-116 = system: HCT-116
HOP-62 = system: HOP-62
IGROV-1 = system: IGROV-1
Malme-3M = system: Malme-3M
NCI-H460 = system: NCI-H460
NCI-H522 = system: NCI-H522
OVCAR-4 = system: OVCAR-4
SF-268 = system: SF-268
SN12C = system: SN12C
SNB-19 = system: SNB-19
UO-31 = system: UO-31
MDA-MB-231 = system: MDA-MB-231
MDA-MB-435 = system: MDA-MB-435
NCI/ADR-RES = system: NCI/ADR-RES
PC-3 = system: PC-3

Measured: GI50

COc1ccc(CCn2c(=O)c3ccccc3n(C)c2=O)cc1
inactive: 786-0 67.1 µM | A549 50.9 µM | CCRF-CEM 23.7 µM | HCC 2998 21 µM | HCT-116 38.7 µM | HOP-62 26.4 µM | IGROV-1 > 100 µM | Malme-3M 48 µM | NCI-H460 60.1 µM | NCI-H522 24.2 µM | OVCAR-4 > 100 µM | SF-268 56.4 µM | SN12C 80.7 µM | SNB-19 > 100 µM | UO-31 40.4 µM

COC(=O)C(CC(=O)Nc1ccc(C)cc1)C(=O)C(=O)Nc1c(C(C)C)cccc1C(C)C (stereo unspecified)
inactive: 786-0 > 100 µM | A549 > 100 µM | CCRF-CEM > 100 µM | HCC 2998 > 100 µM | HCT-116 > 100 µM | HOP-62 > 100 µM | IGROV-1 > 100 µM | Malme-3M > 100 µM | NCI-H460 > 100 µM | NCI-H522 > 100 µM | OVCAR-4 > 100 µM | SF-268 > 100 µM | SN12C > 100 µM | SNB-19 > 100 µM | UO-31 > 100 µM

O=C(NS(=O)(=O)c1ccccc1)C(Cc1ccccc1)C(Cc1ccccc1)C(=O)NS(=O)(=O)c1ccccc1 (stereo unspecified)
inactive: 786-0 > 100 µM | A549 > 100 µM | CCRF-CEM > 100 µM | HCC 2998 > 100 µM | HCT-116 > 100 µM | HOP-62 > 100 µM | IGROV-1 > 100 µM | Malme-3M > 100 µM | NCI-H460 > 100 µM | NCI-H522 > 100 µM | OVCAR-4 > 100 µM | SF-268 > 100 µM | SN12C > 100 µM | SNB-19 > 100 µM | UO-31 > 100 µM

O=C(Cc1nc2ccccc2c(=O)n1-c1ccccc1Cl)c1ccncc1
inactive: 786-0 > 100 µM | A549 > 100 µM | CCRF-CEM > 100 µM | HCC 2998 > 100 µM | HCT-116 > 100 µM | HOP-62 > 100 µM | IGROV-1 > 100 µM | Malme-3M > 100 µM | NCI-H460 > 100 µM | NCI-H522 > 100 µM | OVCAR-4 68.2 µM | SF-268 > 100 µM | SN12C > 100 µM | SNB-19 > 100 µM | UO-31 > 100 µM

CC(=O)OCC1OC(OC2C(CSC3OC(COC(C)=O)C(OC(C)=O)C(OC(C)=O)C3OC(C)=O)OC(OC(C)=O)C(OC(C)=O)C2OC(C)=O)C(OC(C)=O)C(OC(C)=O)C1OC(C)=O (stereo unspecified)
inactive: 786-0 > 100 µM | A549 > 100 µM | CCRF-CEM > 100 µM | HCC 2998 > 100 µM | HCT-116 > 100 µM | HOP-62 > 100 µM | IGROV-1 > 100 µM | Malme-3M > 100 µM | NCI-H460 > 100 µM | NCI-H522 > 100 µM | OVCAR-4 > 100 µM | SF-268 > 100 µM | SN12C > 100 µM | SNB-19 > 100 µM | UO-31 > 100 µM

CCOC(=O)C1(c2ccccc2)CCCNCC1 (stereo unspecified)
inactive: 786-0 > 100 µM | A549 > 100 µM | CCRF-CEM 28.1 µM | HCC 2998 > 100 µM | HCT-116 58.9 µM | HOP-62 32.4 µM | IGROV-1 > 100 µM | Malme-3M > 100 µM | NCI-H460 29 µM | NCI-H522 7.91 µM | OVCAR-4 > 100 µM | SF-268 > 100 µM | SN12C 39.4 µM | SNB-19 > 100 µM | UO-31 > 100 µM

O=[N+]([O-])c1cc(I)cc(/C=N/NS(=O)(=O)c2ccc(F)cc2)c1O
inactive: 786-0 28.4 µM | A549 35.5 µM | CCRF-CEM 22 µM | HCC 2998 33 µM | HCT-116 22.9 µM | HOP-62 26.2 µM | IGROV-1 33.7 µM | Malme-3M 21.2 µM | NCI-H460 21.9 µM | NCI-H522 20.7 µM | OVCAR-4 38.5 µM | SF-268 28.9 µM | SN12C 22.9 µM | SNB-19 31 µM | UO-31 26.2 µM

Cc1ccc(S(=O)(=O)C2c3nc4ccccc4cc3-c3nc4ccccc4nc32)cc1 (stereo unspecified)
inactive: 786-0 > 100 µM | A549 > 100 µM | CCRF-CEM > 100 µM | HCC 2998 > 100 µM | HCT-116 > 100 µM | HOP-62 > 100 µM | IGROV-1 > 100 µM | Malme-3M > 100 µM | NCI-H460 > 10 µM | NCI-H522 > 100 µM | OVCAR-4 > 100 µM | SF-268 > 100 µM | SN12C > 100 µM | SNB-19 > 100 µM | UO-31 > 100 µM

O=C(O)c1c[nH]c2c(ccc3ncccc32)c1=O
inactive: 786-0 > 100 µM | A549 > 100 µM | CCRF-CEM > 100 µM | HCC 2998 > 100 µM | HCT-116 > 100 µM | HOP-62 > 100 µM | IGROV-1 > 100 µM | Malme-3M > 100 µM | NCI-H460 > 100 µM | NCI-H522 > 100 µM | OVCAR-4 > 100 µM | SF-268 > 100 µM | SN12C > 100 µM | SNB-19 > 100 µM | UO-31 > 100 µM

CN1CCn2c(Br)ccc2C1=O
inactive: 786-0 > 100 µM | A549 > 100 µM | CCRF-CEM > 100 µM | HCC 2998 > 100 µM | HCT-116 > 100 µM | HOP-62 > 100 µM | IGROV-1 > 100 µM | Malme-3M > 100 µM | NCI-H460 > 100 µM | NCI-H522 > 100 µM | OVCAR-4 > 100 µM | SF-268 > 100 µM | SN12C > 100 µM | SNB-19 > 100 µM | UO-31 > 100 µM

O=[N+]([O-])c1ccc(-c2csc(=[N+]3CCCCC3)s2)cc1
inactive: 786-0 34.4 µM | A549 1.93 µM | CCRF-CEM 4.91 µM | HCC 2998 21.1 µM | HCT-116 28.3 µM | HOP-62 3.1 µM | IGROV-1 4.48 µM | Malme-3M 12.1 µM | NCI-H460 13.6 µM | NCI-H522 3.61 µM | OVCAR-4 18.5 µM | SF-268 3.93 µM | SN12C 4.48 µM | SNB-19 4.88 µM | UO-31 > 68.1 µM

Cc1nc2cc3nc4ccccc4c(O)c3cc2s1
inactive: 786-0 > 100 µM | A549 > 100 µM | CCRF-CEM > 100 µM | HCC 2998 > 100 µM | HCT-116 > 100 µM | HOP-62 > 100 µM | IGROV-1 > 100 µM | Malme-3M > 100 µM | NCI-H460 > 100 µM | NCI-H522 > 100 µM | OVCAR-4 > 100 µM | SF-268 > 100 µM | SN12C > 100 µM | SNB-19 > 100 µM | UO-31 > 100 µM

CCOC(=O)c1cn(-c2ccc([N+](=O)[O-])cc2)c(=S)n2c1nc1ccccc12
inactive: 786-0 30.1 µM | A549 36.7 µM | CCRF-CEM 9.84 µM | HCC 2998 23.1 µM | HCT-116 31.1 µM | HOP-62 63.2 µM | IGROV-1 54.1 µM | MDA-MB-231 30.9 µM | MDA-MB-435 41.8 µM | NCI-H460 51.5 µM | NCI/ADR-RES 20.8 µM | OVCAR-4 21.6 µM | PC-3 13.6 µM | SN12C 50.1 µM | SNB-19 72.6 µM | UO-31 1.83 µM
